Results published in PubChem BioAssay AID248 (DTP/NCI, 2004).
“And” between values parts separate entries of the source, which are not always exact repeats. Identical values can stand only once. Toxic doses and inconclusive results are not listed.

System: L1210 leukemia ip in BDF1 mice, survival T/C
Assay: NCI In Vivo Anticancer Drug Screen. Data for tumor model L1210 Leukemia (intraperitoneal) in B6D2F1 (BDF1) mice
Settings: endpoint: mean survival time, higher = longer survival
In short: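 In this screen, tumor-bearing mice given compound are compared to those given vehicle, and their survival values are reported as a treated-to-control quotient.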

In the case of O=c1cnn(C2OC(CO)C(O)C2O)c(=O)[nH]1 (stereo not drawn), the T/C (dose: 12.5 mg/kg/injection, schedule: Q#A X Z (ip), vehicle: saline) is reported as 160 % of control, the T/C (dose: 25.0 mg/kg/injection, schedule: Q01DX Z (im), vehicle: saline) is reported as 150 % of control and the T/C (dose: 25.0 mg/kg/injection, schedule: Q01DX Z (ip), vehicle: methylcellulose (MC)) is reported as 120 % of control. The T/C (dose: 25.0 mg/kg/injection, schedule: Q01DX Z (ip), vehicle: saline) was 156 % of control, the T/C (dose: 25.0 mg/kg/injection, schedule: Q#A X Z (ip), vehicle: saline) was 156 % of control and the T/C (dose: 32.0 mg/kg/injection, schedule: Q01DX009 (oral), vehicle: saline) was 151 % of control. For the same compound, the T/C (dose: 50.0 mg/kg/injection, schedule: Q01DX010 (ip), vehicle: saline) was 120 % of control, the T/C (dose: 50.0 mg/kg/injection, schedule: Q01DX Z (im), vehicle: saline) was 156 % of control and the T/C (dose: 50.0 mg/kg/injection, schedule: Q01DX Z (ip), vehicle: methylcellulose (MC)) was 120 % of control. The T/C (dose: 50.0 mg/kg/injection, schedule: Q01DX Z (ip), vehicle: saline) was 159 % of control, the T/C (dose: 50.0 mg/kg/injection, schedule: Q01DX Z (oral), vehicle: other) was 158 % of control and the T/C (dose: 50.0 mg/kg/injection, schedule: Q#A X Z (ip), vehicle: saline) was 164 % of control. The T/C (dose: 75.0 mg/kg/injection, schedule: Q01DX005 (ip), vehicle: saline) was 112 % of control, the T/C (dose: 88.0 mg/kg/injection, schedule: Q01DX Z (ip), vehicle: methylcellulose (MC)) was 122 % of control and the T/C (dose: 100.0 mg/kg/injection, schedule: Q01DX010 (ip), vehicle: saline) was 123 % of control. The T/C (dose: 100.0 mg/kg/injection, schedule: Q01DX Z (ip), vehicle: methylcellulose (MC)) was 116 % of control, the T/C (dose: 100.0 mg/kg/injection, schedule: Q01DX Z (oral), vehicle: saline) was 151 % of control and the T/C (dose: 100.0 mg/kg/injection, schedule: Q#A X Z (ip), vehicle: saline) was 176 % of control. For the same compound, the T/C (dose: 128.0 mg/kg/injection, schedule: Q03HX016 (oral), vehicle: saline) was 116 % of control, the T/C (dose: 132.0 mg/kg/injection, schedule: Q01DX Z (ip), vehicle: methylcellulose (MC)) was 117 % of control and the T/C (dose: 150.0 mg/kg/injection, schedule: Q01DX005 (ip), vehicle: saline) was 115 % of control. The T/C (dose: 150.0 mg/kg/injection, schedule: Q01DX Z (oral), vehicle: saline) was 172 % of control, the T/C (dose: 150.0 mg/kg/injection, schedule: Q## X003 (ip), vehicle: saline) was 105 % of control and the T/C (dose: 152.0 mg/kg/injection, schedule: Q## X024 (ip), vehicle: saline) was 123 % of control. For the same compound, the T/C (dose: 180.0 mg/kg/injection, schedule: Q01DX009 (ip), vehicle: saline) was 120 % of control, the T/C (dose: 200.0 mg/kg/injection, schedule: Q#A X Z (ip), vehicle: saline) was 176 % of control and the T/C (dose: 256.0 mg/kg/injection, schedule: Q03HX016 (ip), vehicle: saline) was 153 % of control. The T/C (dose: 300.0 mg/kg/injection, schedule: Q01DX005 (ip), vehicle: saline) was 118 % of control, the T/C (dose: 300.0 mg/kg/injection, schedule: Q01DX009 (oral), vehicle: saline) was 123 % of control and the T/C (dose: 300.0 mg/kg/injection, schedule: Q01DX Z (oral), vehicle: saline) was 159 % of control. The T/C (dose: 300.0 mg/kg/injection, schedule: Q03DX Z (ip), vehicle: other) was 119 % of control, the T/C (dose: 300.0 mg/kg/injection, schedule: Q## X003 (ip), vehicle: saline) was 106 % of control and the T/C (dose: 304.0 mg/kg/injection, schedule: Q## X024 (ip), vehicle: saline) was 151 % of control. The T/C (dose: 350.0 mg/kg/injection, schedule: Q01DX001 (ip), vehicle: saline) was 109 % of control, the T/C (dose: 350.0 mg/kg/injection, schedule: Q07DX Z (ip), vehicle: saline) was 109 % of control and the T/C (dose: 400.0 mg/kg/injection, schedule: Q01DX Z (oral), vehicle: other) was 191 % of control. For the same compound, the T/C (dose: 400.0 mg/kg/injection, schedule: Q#A X Z (ip), vehicle: saline) was 158 % of control, the T/C (dose: 512.0 mg/kg/injection, schedule: Q03HX016 (ip), vehicle: saline) was 162 % of control and the T/C (dose: 512.0 mg/kg/injection, schedule: Q03HX016 (oral), vehicle: saline) was 158 % of control. The T/C (dose: 600.0 mg/kg/injection, schedule: Q01DX001 (ip), vehicle: saline) was 101 % of control, the T/C (dose: 600.0 mg/kg/injection, schedule: Q01DX001 (oral), vehicle: saline) was 109 % of control and the T/C (dose: 600.0 mg/kg/injection, schedule: Q01DX001 (sc), vehicle: saline) was 106 % of control. The T/C (dose: 600.0 mg/kg/injection, schedule: Q01DX005 (ip), vehicle: saline) was 121 % of control, the T/C (dose: 600.0 mg/kg/injection, schedule: Q01DX009 (oral), vehicle: saline) was 118 % of control and the T/C (dose: 600.0 mg/kg/injection, schedule: Q01DX Z (oral), vehicle: saline) was 154 % of control. The T/C (dose: 600.0 mg/kg/injection, schedule: Q## X002 (ip), vehicle: saline) was 98 % of control, the T/C (dose: 600.0 mg/kg/injection, schedule: Q## X003 (ip), vehicle: saline) was 107 % of control and the T/C (dose: 600.0 mg/kg/injection, schedule: Q## X008 (ip), vehicle: saline) was 119 % of control. The T/C (dose: 600.0 mg/kg/injection, schedule: Q## X016 (ip), vehicle: saline) was 117 % of control, the T/C (dose: 700.0 mg/kg/injection, schedule: Q01DX001 (ip), vehicle: saline) was 113 % of control and 116 % of control and the T/C (dose: 700.0 mg/kg/injection, schedule: Q07DX Z (ip), vehicle: other) was 111 % of control. The T/C (dose: 700.0 mg/kg/injection, schedule: Q07DX Z (ip), vehicle: saline) was 113 % of control, the T/C (dose: 800.0 mg/kg/injection, schedule: Q01DX009 (ip), vehicle: saline) was 110 % of control and the T/C (dose: 800.0 mg/kg/injection, schedule: Q01DX Z (im), vehicle: saline) was 151 % of control. For the same compound, the T/C (dose: 800.0 mg/kg/injection, schedule: Q## X000 (other), vehicle: other) was 107 % of control, the T/C (dose: 800.0 mg/kg/injection, schedule: Q#A X Z (ip), vehicle: saline) was 101 % of control and the T/C (dose: 1024.0 mg/kg/injection, schedule: Q03HX016 (ip), vehicle: saline) was 176 % of control. For the same compound, the T/C (dose: 1024.0 mg/kg/injection, schedule: Q03HX016 (oral), vehicle: saline) was 161 % of control, the T/C (dose: 1200.0 mg/kg/injection, schedule: Q01DX001 (oral), vehicle: saline) was 112 % of control and the T/C (dose: 1200.0 mg/kg/injection, schedule: Q01DX001 (sc), vehicle: saline) was 110 % of control. For the same compound, the T/C (dose: 1200.0 mg/kg/injection, schedule: Q01DX009 (ip), vehicle: saline) was 98 % of control, the T/C (dose: 1200.0 mg/kg/injection, schedule: Q01DX009 (oral), vehicle: saline) was 100 % of control and the T/C (dose: 1200.0 mg/kg/injection, schedule: Q01DX009 (sc), vehicle: saline) was 94 % of control. For the same compound, the T/C (dose: 1200.0 mg/kg/injection, schedule: Q01DX Z (oral), vehicle: saline) was 104 % of control, the T/C (dose: 1200.0 mg/kg/injection, schedule: Q03DX Z (ip), vehicle: other) was 158 % of control and the T/C (dose: 1200.0 mg/kg/injection, schedule: Q## X002 (ip), vehicle: saline) was 110 % of control. For the same compound, the T/C (dose: 1200.0 mg/kg/injection, schedule: Q## X003 (ip), vehicle: saline) was 114 % of control, the T/C (dose: 1200.0 mg/kg/injection, schedule: Q## X008 (ip), vehicle: saline) was 123 % of control and the T/C (dose: 1200.0 mg/kg/injection, schedule: Q## X024 (ip), vehicle: saline) was 155 % of control. The T/C (dose: 1400.0 mg/kg/injection, schedule: Q01DX001 (ip), vehicle: saline) was 115 % of control and 116 % of control, the T/C (dose: 1400.0 mg/kg/injection, schedule: Q07DX Z (ip), vehicle: other) was 117 % of control and the T/C (dose: 1600.0 mg/kg/injection, schedule: Q01DX009 (ip), vehicle: saline) was 92 % of control. The T/C (dose: 1600.0 mg/kg/injection, schedule: Q01DX Z (oral), vehicle: other) was 96 % of control, the T/C (dose: 1600.0 mg/kg/injection, schedule: Q01DX Z (oral), vehicle: saline) was 98 % of control and the T/C (dose: 2048.0 mg/kg/injection, schedule: Q03HX016 (ip), vehicle: saline) was 174 % of control. The T/C (dose: 2400.0 mg/kg/injection, schedule: Q01DX001 (oral), vehicle: saline) was 117 % of control, the T/C (dose: 2400.0 mg/kg/injection, schedule: Q01DX001 (sc), vehicle: saline) was 115 % of control and the T/C (dose: 2400.0 mg/kg/injection, schedule: Q03DX Z (ip), vehicle: other) was 151 % of control. The T/C (dose: 2400.0 mg/kg/injection, schedule: Q## X002 (ip), vehicle: saline) was 107 % of control, the T/C (dose: 2400.0 mg/kg/injection, schedule: Q## X024 (ip), vehicle: saline) was 153 % of control and the T/C (dose: 2800.0 mg/kg/injection, schedule: Q01DX001 (ip), vehicle: saline) was 121 % of control. For the same compound, the T/C (dose: 2800.0 mg/kg/injection, schedule: Q07DX Z (ip), vehicle: other) was 124 % of control and the T/C (dose: 3200.0 mg/kg/injection, schedule: Q01DX Z (im), vehicle: saline) was 87 % of control.
